Columns and labels:
[1] = molecular target: T1, human S1P1 (EDG1) receptor (Homo sapiens, UniProt P21453); assay: S1P1 β-arrestin recruitment (Tango) assay to determine EC50 values; format: cell-based; details: Tango-EDG1 bla U2OS cells, 16 h incubation
T1 construct: host or cells: U2OS (Tango EDG1-bla U2OS)
Source text: S1P1 β-Arrestin Recruitment (Tango) Assay to Determine EC50 Values
Upon ligand activation, G protein-coupled receptors (GPCR) trigger two pathways that independently transduce signals to the cell: one through heterotrimeric GTP-binding proteins (G proteins) and one through β-arrestins. Agonist-induced GPCRs recruit β-arrestin proteins, which then bind to the carboxy-terminal domain of ligand-activated GPCRs. The amount of β-arrestin recruitment can be used to assess the potency and efficacy of GPCR activating ligands.
To measure the potency and efficacy of compounds as S1P1 (EDG1) receptor agonists, Tango™-EDG1 bla U2OS cells (Invitrogen, USA, Catalog #K1520) are used. The Tango™ GPCR technology is based on GeneBLAzer β-lactamase reporter cell assays, which uses a mammalian-optimized β-lactamase reporter gene (bla) combined with a FRET-enabled substrate. The host cells, U2OS, stably express a human S1P1 (EDG1) receptor/transcription factor (TF) fusion protein. The cells also express a recombinant protease tagged β-arrestin protein, which is recruited to the S1P1 receptor upon ligand stimulation and specifically cleaves the S1P1-TF fusion protein. The released TF activates the β-lactamase (bla) reporter gene. To measure the reporter gene activity, cells are loaded with a fluorescent substrate containing two chemically coupled fluorophores, coumarin and fluorescein. […] In the presence of bla, the chemical bond is cleaved and FRET is inhibited. […] The amount of β-arrestin recruitment is proportional to the increase in blue fluorescence.
Tango™-EDG1 bla U2OS cells are cultivated in McCoy's 5A containing 10% dialyzed FBS, 0.1 mM NEAA, 25 mM HEPES, 1 mM sodium pyruvate, 1% Penicillin/Streptomycin, 200 μg/ml zeocin, 50 μg/ml hygromycin and 100 μg/ml geneticin (Invitrogen, USA). Cells are detached with trypsin, resuspended in medium and then counted.
Compounds (10 mM stock in DMSO) are diluted first in DMSO. The pre-diluted compounds solutions are then transferred into Assay Medium/0.1% fatty acid free BSA to reach a fourfold concentrated compound stock, which is applied to the cells to reach the final compound concentrations that range from 10 μM to 0.0005 nM (0.5% final DMSO). Cells are then incubated for 16 h at 37° C. and 5% CO2.

circulating lymphocytes = assay: Assessment of in vivo efficacy: circulating lymphocytes after oral administration to Wistar rats; parameters: species or system rat; details: Rattus norvegicus, Lymphocyte, normotensive male Wistar rats, compared to vehicle group, read-out: Lymphocyte counts; for change in vivo at 10 mg/kg: 6 h after oral administration of 10 mg/kg
Procedure: Assessment of In Vivo Efficacy
The efficacy of the compounds of Formula (I) is assessed by measuring the circulating lymphocytes after oral administration of 3 to 30 mg/kg of a compound of Formula (I) to normotensive male Wistar rats. The animals are housed in climate-controlled conditions with a 12 h-light/dark cycle, and have free access to normal rat chow and drinking water. […] Full blood is subjected to hematology using Advia Hematology system (Bayer Diagnostics, Zurich, Switzerland).
All data are presented as mean±SEM. Statistical analyses are performed by analysis of variance (ANOVA) using Statistica (StatSoft) and the Student-Newman-Keuls procedure for multiple comparisons. The null hypothesis is rejected when p<0.05.

T1 sequence (P21453 whole entry): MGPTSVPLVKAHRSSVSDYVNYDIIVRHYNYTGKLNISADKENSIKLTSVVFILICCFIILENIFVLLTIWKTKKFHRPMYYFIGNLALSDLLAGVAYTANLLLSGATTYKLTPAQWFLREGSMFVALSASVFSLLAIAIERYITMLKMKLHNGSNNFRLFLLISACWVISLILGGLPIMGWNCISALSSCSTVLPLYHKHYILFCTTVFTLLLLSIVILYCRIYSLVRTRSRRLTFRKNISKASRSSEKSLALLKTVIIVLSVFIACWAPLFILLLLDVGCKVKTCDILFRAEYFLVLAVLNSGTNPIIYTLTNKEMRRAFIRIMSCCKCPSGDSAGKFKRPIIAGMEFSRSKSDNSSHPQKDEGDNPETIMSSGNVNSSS

EC50 [1] [nM]	SMILES	change in vivo at 10 mg/kg (circulating lymphocytes) [%]	change in vivo at 3 mg/kg (circulating lymphocytes; 6 h after an oral dose of 3 mg/kg) [%]
0.05	COc1cc(-c2nc(-c3cc(C)c(OCCCC(=O)O)c(Cl)c3)no2)cc(C2CCCC2)n1 [Example 40, 4-(2-Chloro-4-(5-(2-cyclopentyl-6-methoxypyridin-4-yl)-1,2,4-oxadiazol-3-yl)-6-methylphenoxy)butanoic acid]	-65	
0.3	CCc1cc(-c2noc(-c3cc(OC)nc(C4CCCC4)c3)n2)cc(C)c1OCCN1CCC(C(=O)O)C1 (racemic) [Example 8, rac-1-(2-(4-(5-(2-Cyclopentyl-6-methoxypyridin-4-yl)-1,2,4-oxadiazol-3-yl)-2-ethyl-6-methylphenoxy)ethyl)pyrrolidine-3-carboxylic acid]	-66	
0.4	COc1cc(-c2nc(-c3cc(C)c(OCC(=O)NCCO)c(Cl)c3)no2)cc(C2CCCC2)n1 [Example 42, 2-(2-Chloro-4-(5-(2-cyclopentyl-6-methoxypyridin-4-yl)-1,2,4-oxadiazol-3-yl)-6-methyl-phenoxy)-N-(2-hydroxyethyl)acetamide]	-75	
0.7	COc1cc(-c2nc(-c3cc(Cl)c(OCCNCC(=O)O)c(OC)c3)no2)cc(C2CCCC2)n1 [Example 51, 2-((2-(2-Chloro-4-(5-(2-cyclopentyl-6-methoxypyridin-4-yl)-1,2,4-oxadiazol-3-yl)-6-methoxyphenoxy)ethyl)amino)acetic acid]		-22
0.6	COc1cc(-c2nc(-c3cc(Cl)c(OCCN4CC(C(=O)O)C4)c(OC)c3)no2)cc(C2CCCC2)n1 [Example 52, 1-(2-(2-Chloro-4-(5-(2-cyclopentyl-6-methoxypyridin-4-yl)-1,2,4-oxadiazol-3-yl)-6-methoxyphenoxy)ethyl)azetidine-3-carboxylic acid]	-71	
1.7	COc1cc(-c2nc(-c3cc(Cl)c(OCCCC(=O)NCCO)c(OC)c3)no2)cc(C2CCCC2)n1 [Example 36, 4-(2-Chloro-4-(5-(2-cyclopentyl-6-methoxypyridin-4-yl)-1,2,4-oxadiazol-3-yl)-6-methoxyphenoxy)-N-(2-hydroxyethyl)butanamide]	-73	

The next lines start with the molecule.

SMILES	EC50 [1] [nM]	change in vivo at 10 mg/kg (circulating lymphocytes) [%]	change in vivo at 3 mg/kg (circulating lymphocytes; 6 h after an oral dose of 3 mg/kg) [%]
CCc1cc(-c2nnc(-c3cc(OC)nc(C4CCCC4)c3)o2)cc(C)c1OCCCC(=O)O [Example 61, 4-(4-(5-(2-Cyclopentyl-6-methoxypyridin-4-yl)-1,3,4-oxadiazol-2-yl)-2-ethyl-6-methylphenoxy)butanoic acid]	0.1	-27	
CCc1cc(-c2noc(-c3cc(OC)nc(C4CCCC4)c3)n2)cc(C)c1OCCN(C)CC(=O)O [Example 16, 2-((2-(4-(5-(2-Cyclopentyl-6-methoxypyridin-4-yl)-1,2,4-oxadiazol-3-yl)-2-ethyl-6-methylphenoxy)ethyl)(methyl)amino)acetic acid]	0.2	-75	
CCc1cc(-c2noc(-c3cc(OC)nc(C4CCCC4)c3)n2)cc(C)c1OCCCN(C)C(=O)CC(=O)O [Example 33, 3-((3-(4-(5-(2-Cyclopentyl-6-methoxypyridin-4-yl)-1,2,4-oxadiazol-3-yl)-2-ethyl-6-methylphenoxy)propyl)(methyl)amino)-3-oxopropanoic acid]	0.501	-78	
CCc1cc(-c2nc(-c3cc(OC)nc(C4CCCC4)c3)no2)cc(C)c1OCCCNCC(=O)O [Example 59, 2-((3-(4-(3-(2-Cyclopentyl-6-methoxypyridin-4-yl)-1,2,4-oxadiazol-5-yl)-2-ethyl-6-methylphenoxy)propyl)amino)acetic acid]	2.7	-82	
CCc1cc(-c2noc(-c3cc(OC)nc(C4CCCC4)c3)n2)cc(C)c1OC[C@@H](O)CNCC(=O)O [Example 9, (S)-2-((3-(4-(5-(2-Cyclopentyl-6-methoxypyridin-4-yl)-1,2,4-oxadiazol-3-yl)-2-ethyl-6-methylphenoxy)-2-hydroxypropyl)amino)acetic acid]	0.07	-72	

Source: patent US9133179B2, “2-methoxy-pyridin-4-yl-derivatives” (Actelion Pharmaceuticals Ltd., priority 2011, dated 2015)
